# Test results: patent US20040192765A1 (H. Lundbeck A/S, priority 2001, published 2004)
# What was measured:
# Type in all cases: in vivo
# [1] = fixed dose studies (MADRS rating scale and Clinical Global Impression); conditions: escitalopram in a dose of 10 mg compared with citalopram 40 mg
# [2] = tested on: Chronic Mild Stress model; assay: Chronic Mild Stress model; conditions: animal models, compared with citalopram-racemate
# Description: (§1) This has i.a. been found in the Chronic Mild Stress model (Wiliner P., Psychopharmachology 1997, 134, 319-329).
# [3] = tested on: primary care patients with major depression disorder; assay: 8-week, double-blind, randomised, placebo-controlled, flexible-dose clinical study
# Description: as §1
# A total of 471 patients were randomised into the study. The all-patient-treated set comprised 469 patients and the full-analysis set comprised 468 patients.
# There was an approximately 3 to 1 ratio of women to men in each treatment group, and almost all patients were Caucasian. The mean age was 43 years (SD 11). At baseline, the mean MADRS total score was approximately 29 for the treatment group, which signifies moderate to severely ill patients.
# [4] = pharmacological and clinical studies / animal models (summary statements)
# Description: This may be shown in functional in-vivo pharmacological models and studies of 5-HT-reuptake effect and or in behavior models, for example depression models.
structure (smiles),measurement,setting,value
"CN(C)CCC[C@@]1(c2ccc(F)cc2)OCc2cc(C#N)ccc21 [escitalopram, (S)-1-[3-(dimethylamino)propyl]-1-(4-fluorophenyl)-1,3-dihydro-5-isobenzofurancarbonitrile]",effect as determined by MADRS rating scale and Clinical Global Impression (severity and improvement),[1],at least same effect as citalopram in a dose of 40 mg
same,speed of response,[2],faster response than citalopram-racemate
same,onset of effect,"[3]; 10 mg escitalopram, 20 mg citalopram, versus placebo",showed effects after one week
same,adjusted mean change in MADRS total score versus placebo (significance),"[3]; Week 1 (p=0.023) to Week 4 (p=0.002), observed cases",significantly superior therapeutic effect
same,CGI improvement and severity subscale versus placebo,"[3]; Week 4, last observation carried forward",statistically significantly superior to placebo
same,adjusted mean change in MADRS total score versus placebo,"[3]; Week 4, last observation carried forward, 10 mg escitalopram, 20 mg citalopram, escitalopram p=0.002, citalopram statistically insignificant",2.7 points
same,CGI improvement and severity subscale versus placebo,"[3]; from Week 1 onwards (p<0.05), observed cases, 4-week period",significantly superior to placebo
same,onset of action,"[4]; animal models and clinical studies, compared with the racemate and other SSRIs",faster onset of action
same,potency relative to the racemate,[4]; pharmacological and clinical studies,substantially more than two times as potent as the racemate
same,extent of response,[4]; various animal models,more full response
